Consider 13 molecules from patent US12195482B1 (Arcus Biosciences, Inc., priority 2022, dated 2025).

One test concerns the target T1, p-AXL (Homo sapiens, UniProt P30530).
T1 construct: expressed in transfected cells; host or cells: HEK293T
T1 sequence (P30530 26-894): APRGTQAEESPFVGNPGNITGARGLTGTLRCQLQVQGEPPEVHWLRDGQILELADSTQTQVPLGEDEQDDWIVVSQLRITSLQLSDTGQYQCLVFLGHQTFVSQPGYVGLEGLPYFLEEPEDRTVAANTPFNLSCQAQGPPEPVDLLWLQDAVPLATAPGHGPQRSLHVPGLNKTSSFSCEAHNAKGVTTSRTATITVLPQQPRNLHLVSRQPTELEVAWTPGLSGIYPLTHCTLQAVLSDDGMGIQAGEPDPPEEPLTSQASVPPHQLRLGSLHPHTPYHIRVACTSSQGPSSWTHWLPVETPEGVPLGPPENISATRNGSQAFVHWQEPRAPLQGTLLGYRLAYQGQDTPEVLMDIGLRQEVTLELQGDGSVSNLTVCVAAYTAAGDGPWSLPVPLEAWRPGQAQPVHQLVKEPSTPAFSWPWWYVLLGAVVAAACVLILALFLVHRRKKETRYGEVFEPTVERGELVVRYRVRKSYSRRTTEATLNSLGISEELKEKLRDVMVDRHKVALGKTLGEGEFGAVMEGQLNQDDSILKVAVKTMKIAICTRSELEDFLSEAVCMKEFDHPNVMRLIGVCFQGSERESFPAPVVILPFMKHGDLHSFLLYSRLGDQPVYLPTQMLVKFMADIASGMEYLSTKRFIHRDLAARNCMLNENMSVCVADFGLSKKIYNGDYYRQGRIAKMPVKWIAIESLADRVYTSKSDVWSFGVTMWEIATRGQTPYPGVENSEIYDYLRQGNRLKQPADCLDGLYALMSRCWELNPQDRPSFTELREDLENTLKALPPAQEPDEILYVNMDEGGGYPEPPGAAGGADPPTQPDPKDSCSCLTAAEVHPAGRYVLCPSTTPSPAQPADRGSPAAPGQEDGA
Nature of the test: Axl phosphorylation inhibition ELISA in HEK293T cells transfected with NanoLuc-tagged AXL. It is filed as cell-based. The note with it: 1 h compound incubation, media (OptiMEM). The method, then:
[formula] Measurement of Axl Phosphorylation Inhibition
The dose-response assays were performed in S-Bio PrimeSurface® 3D culture: Ultra-low Attachment Plates: 384 well, U bottom (#MS-9384UZ) containing 400 nL of 22 serial 2-fold compound dilutions using Bravo and Echo. ELISA assay was performed on Pierce™ streptavidin coated high capacity 384-well white plates (Thermofisher Cat #15505). The plates were coated overnight at 4° C. with 50 μl/well of biotinlyated phospho-tyrosine mouse mAb (Cell Signaling Technology, 9417s).
HEK293T cells were grown in DMEM containing 10% FBS, 1% Pen/Strep, 1% G-Max. A day before the assay, cells were transiently transfected with 6.8 μg of NanoLuc-tagged AXL plasmid DNA and 8 μg of carrier DNA using FuGENE® HD Transfection Reagent (Promega) according to manufacturer's instructions. On the day of the assay, transfected cells were harvested and resuspended in OptiMEM. 70,000 cells/well were added to the compounds containing assay plates. After a gentle mix and a short spin, the plates were incubated at 37° C. After 1 h, the cells were lysed followed by a brief centrifugation and 30 min of shaking at 300 rpm. Meanwhile, the antibody coated plates were brought to room temperature and then were washed ten times in PBS with 0.05% Tween 20 (ELISA-wash buffer). 50 μl/well of cell lysate was transferred to the ELISA plates and shaken for 2 hours. After washing again with the ELISA wash buffer, the samples were diluted with 25 μl of PBS. The captured NanoLuc tagged p-AXL was detected using Nano-Glo® Luciferase Assay System (Promega) and manufacturer's instruction. The luminescence signal was measured using Envision plate reader. IC50 values were determined by fitting the data to a standard 4-parameter logistic equation.
In general terms: An ELISA detects its analyte on a solid surface through an enzyme-linked reagent.

The next test has as its target T2, Axl (Homo sapiens, UniProt P30530).
T2 sequence (P30530 26-894): T1 sequence (P30530 26-894)
Nature of the test: Biochemical potency, HTRF KinEASE-TK kinase assay. More on the design: purchased Invitrogen. The note with it: 5 nM AXL, 700 μM ATP. On the procedure:
Measurement of Biochemical Compound Potency of Axl Inhibitors
Purified recombinant human AXL, TYRO3 and MER proteins were purchased from Invitrogen™. 10 nM AXL, 2 nM TYRO3 or MER were incubated with varying concentrations of compounds in 50 mM HEPES, pH 7.4, 10 mM MgCl2, 0.01% BSA, 1 mM DTT and 2% DMSO in a total volume of 20 μl in a 384-well microplate (Corning™ #3640) at RT for 1 h. The AXL, TYRO3 and MER enzymatic reaction was initiated by transferring 10 μl of enzyme and compound mixture into 10 μl of 1.6 μM TK Substrate-biotin (HTRF® KinEASE-TK kit, Cisbio) and 1400 μM ATP pre-incubated in 50 mM HEPES, pH 7.4, 10 mM MgCl2, 0.01% BSA, 1 mM DTT in a 384-well microplate (Corning™ #3640) at RT, giving the final reaction conditions: 5 nM AXL, 1 nM TYRO3 or MER, 800 nM TK Substrate-biotin and 700 μM ATP in 50 mM HEPES, pH 7.4, 10 mM MgCl2, 0.01% BSA, 1 mM DTT and 1% DMSO with varying concentrations of compounds. Following 2 h incubation at RT, the AXL, TYRO3 and MER enzymatic reaction was stopped by transfer of 10 μl of reaction into 10 μl of detection mix (400 nM Streptavidin-XL665, 200-fold dilution TK Antibody-Cryptate and detection buffer, HTRF® KinEASE-TK kit, Cisbio) in a white 384-well microplate (Perkin Elmer, OptiPlate 384). After 1 h incubation at RT, the plate was put into a plate reader (Evision) to read at 665/620 nm (acceptor/donor) for HTRF. The value of the DMSO blank (MIN inhibition=100% activity) was used as a negative control. The positive control was established by adding 5 μl of enzyme and DMSO mixture into 10 μl of detection mix followed by addition of 5 μl of TK Substrate-biotin and ATP mixture (MAX inhibition=0% activity). To calculate the percent activity, Equation 1 was used. Ratio665/620 is the value at a given compound concentration: […]

Broadly, the IC50 is the concentration needed to halve the response being measured. Read a high IC50 as weaker potency. In the case of `Cc1ccc(C)c(-c2ccc(-c3n[nH]c4ncc(-c5ccc6c(c5)CC[C@@H](N5C7COC[C@H]5C7)CC6)cc34)c(F)c2)n1` [Example 143, (1R)-6-[(7S)-2-{3-[4-(3,6-Dimethylpyridin-2-yl)-2-fluorophenyl]-1H-pyrazolo[3,4-b]pyridin-5-yl}-6,7,8,9-tetrahydro-5H-benzo[7]annulen-7-yl]-3-oxa-6-azabicyclo[3.1.1]heptane], the IC50 was 100 to 1000 nM on p-AXL and less than 100 nM at Axl.

In the case of `Cc1cccc(C#N)c1-c1ccc(-c2c[nH]c3ncc(-c4ccc5c(c4)CC[C@@H](N4C6COCC4C6)CC5)cc23)nc1` [Example 197, 3-Methyl-2-(6-{5-[(7S)-7-{3-oxa-6-azabicyclo[3.1.1]heptan-6-yl}-6,7,8,9-tetrahydro-5H-benzo[7]annulen-2-yl]-1H-pyrrolo[2,3-b]pyridin-3-yl}pyridin-3-yl)benzonitrile], the IC50 on p-AXL is 100 to 1000 nM; against Axl, less than 100 nM.

As for `Cc1ccc(C)c(-c2ccc(-c3n[nH]c4ncc(-c5ccc6c(c5)CC[C@@H](N[C@H]5CCCOC5)CC6)cc34)cc2)n1` [Example 140, (3S)—N-[(7S)-2-{3-[4-(3,6-Dimethylpyridin-2-yl)phenyl]-1H-pyrazolo[3,4-b]pyridin-5-yl}-6,7,8,9-tetrahydro-5H-benzo[7]annulen-7-yl]oxan-3-amine], the IC50 on p-AXL and at Axl was less than 100 nM in each case.

With `Cc1cnc(-c2ccc(-c3n[nH]c4ncc(-c5ccc6c(c5)CC[C@@H](N5C7COCC5C7)CC6)cc34)cc2)c(C)n1` [Example 190, 6-[(7S)-2-{3-[4-(3,5-Dimethylpyrazin-2-yl)phenyl]-1H-pyrazolo[3,4-b]pyridin-5-yl}-6,7,8,9-tetrahydro-5H-benzo[7]annulen-7-yl]-3-oxa-6-azabicyclo[3.1.1]heptane], the figures for the IC50 at p-AXL and on Axl were 100 to 1000 nM and less than 100 nM, respectively.

Take `Cc1cnc(C)c(-c2ccc(-c3c[nH]c4ncc(-c5ccc6c(c5)CC[C@@H](N5C[C@@H]7C[C@H]5CO7)CC6)cc34)cc2)n1` [Example 62, (1S,4S)-5-[(7S)-2-{3-[4-(3,6-Dimethylpyrazin-2-yl)phenyl]-1H-pyrrolo[2,3-b]pyridin-5-yl}-6,7,8,9-tetrahydro-5H-benzo[7]annulen-7-yl]-2-oxa-5-azabicyclo[2.2.1]heptane]: the IC50 at p-AXL and on Axl was less than 100 nM throughout.

Turning to `Cn1ncnc1-c1ccc(-c2n[nH]c3ncc(-c4ccc5c(c4)CC[C@@H](N4C[C@@H]6C[C@H]4CO6)CC5)cc23)cc1` [Example 135, (1S,4S)-5-[(7S)-2-{3-[4-(1-Methyl-1H-1,2,4-triazol-5-yl)phenyl]-1H-pyrazolo[3,4-b]pyridin-5-yl}-6,7,8,9-tetrahydro-5H-benzo[7]annulen-7-yl]-2-oxa-5-azabicyclo[2.2.1]heptane], the IC50 on p-AXL and on Axl was less than 100 nM each time.

For `Cc1ccc(C#N)c(-c2ccc(-c3c[nH]c4ncc(-c5ccc6c(c5)CC[C@@H](N5C7COCC5C7)CC6)cc34)cc2)n1` [Example 72, 6-Methyl-2-(4-{5-[(7S)-7-{3-oxa-6-azabicyclo[3.1.1]heptan-6-yl}-6,7,8,9-tetrahydro-5H-benzo[7]annulen-2-yl]-1H-pyrrolo[2,3-b]pyridin-3-yl}phenyl)pyridine-3-carbonitrile], the IC50 was 100 to 1000 nM against p-AXL and less than 100 nM at Axl.

For the molecule `Cc1cccnc1-c1cnc(-c2n[nH]c3ncc(-c4ccc5c(c4)CC[C@@H](N4C6COCC4C6)CC5)cc23)cn1` [Example 193, 6-[(7S)-2-{3-[5-(3-Methylpyridin-2-yl)pyrazin-2-yl]-1H-pyrazolo[3,4-b]pyridin-5-yl}-6,7,8,9-tetrahydro-5H-benzo[7]annulen-7-yl]-3-oxa-6-azabicyclo[3.1.1]heptane], the IC50 against p-AXL and on Axl was less than 100 nM each time.

`Cc1ccc(C(F)(F)F)nc1-c1ccc(-c2n[nH]c3ncc(-c4ccc5c(c4)CC[C@@H](N4C6COC[C@H]4C6)CC5)cc23)cc1` [Example 145, (1R)-6-[(7S)-2-(3-{4-[3-Methyl-6-(trifluoromethyl)pyridin-2-yl]phenyl}-1H-pyrazolo[3,4-b]pyridin-5-yl)-6,7,8,9-tetrahydro-5H-benzo[7]annulen-7-yl]-3-oxa-6-azabicyclo[3.1.1]heptane]: the results for the IC50 against p-AXL and against Axl were 100 to 1000 nM and less than 100 nM, respectively.

Regarding `Cc1ccc(C#N)c(-c2ccc(-c3n[nH]c4ncc(-c5ccc6c(c5)CC[C@@H](N5C7COCC5C7)CC6)cc34)cc2)n1` [Example 70, 6-Methyl-2-(4-{5-[(7S)-7-{3-oxa-6-azabicyclo[3.1.1]heptan-6-yl}-6,7,8,9-tetrahydro-5H-benzo[7]annulen-2-yl]-1H-pyrazolo[3,4-b]pyridin-3-yl}phenyl)pyridine-3-carbonitrile], the IC50 at p-AXL and against Axl was less than 100 nM each time.

Take `Cc1ccc(C)c(-c2ccc(-c3n[nH]c4ncc(-c5ccc6c(c5)CC[C@@H](N5C7COCC5C7)CC6)cc34)cc2C)n1` [Example 185, 6-[(7S)-2-{3-[4-(3,6-Dimethylpyridin-2-yl)-3-methylphenyl]-1H-pyrazolo[3,4-b]pyridin-5-yl}-6,7,8,9-tetrahydro-5H-benzo[7]annulen-7-yl]-3-oxa-6-azabicyclo[3.1.1]heptane]: the results for the IC50 against p-AXL and at Axl were 100 to 1000 nM and less than 100 nM, respectively.

For `Cc1ccc(C)c(-c2ccc(-c3n[nH]c4ncc(-c5ccc6c(c5)CC[C@@](C)(N5CCC[C@H]5C)CC6)cc34)cc2)n1` [Example 136, 3,6-Dimethyl-2-(4-{5-[(7S)-7-methyl-7-[(2R)-2-methylpyrrolidin-1-yl]-6,7,8,9-tetrahydro-5H-benzo[7]annulen-2-yl]-1H-pyrazolo[3,4-b]pyridin-3-yl}phenyl)pyridine], the IC50 against p-AXL and against Axl was less than 100 nM each time.

In the case of `Cc1cccnc1-n1cc(-c2c[nH]c3ncc(-c4ccc5c(c4)CC[C@@H](N4C6COCC4C6)CC5)cc23)cn1` [Example 27, 6-[(7S)-2-{3-[1-(3-Methylpyridin-2-yl)-1H-pyrazol-4-yl]-1H-pyrrolo[2,3-b]pyridin-5-yl}-6,7,8,9-tetrahydro-5H-benzo[7]annulen-7-yl]-3-oxa-6-azabicyclo[3.1.1]heptane], the IC50 on p-AXL and on Axl was less than 100 nM throughout.
